Data taken from patent publication US10626094B2 (La Jolla Institute of Allergy & Immunology, priority 2014, dated 2020).

Molecular target: LMPTP-A (Low Molecular Weight Protein Tyrosine Phosphatase-A) enzyme (Homo sapiens (Human), UniProt P24666)
Test: LMPTP primary screening / LMPTP (OMFP) enzyme inhibition assay, fluorescence intensity
Format: biochemical
Settings: for IC50: LMPTP-A, OMFP substrate, method of Example 2, read-out: IC50
Summary of the method: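 Single-concentration screen, test compounds 20 μM final, […]. Enzyme (0.625 nM) and OMFP (400 μM) react 50 min at room temp, dark, in Bis-Tris buffer pH 6.0 containing DTT 1 mM and Triton X-100 0.01%. Read-out: fluorescence intensity.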

LMPTP-A (Low Molecular Weight Protein Tyrosine Phosphatase-A) enzyme, sequence (P24666 whole entry): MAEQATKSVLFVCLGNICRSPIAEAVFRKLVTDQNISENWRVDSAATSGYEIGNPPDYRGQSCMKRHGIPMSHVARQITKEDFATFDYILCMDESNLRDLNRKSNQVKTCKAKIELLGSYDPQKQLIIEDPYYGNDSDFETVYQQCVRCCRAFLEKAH

Row | SMILES | IC50 [nM] | LMPTP (OMFP) potency in words (SAR discussion)
1 | COc1ccc(-c2cc(Nc3ccccc3C(F)(F)F)c3ccccc3n2)cc1 [Compound G36, [2-(4-Methoxy-phenyl)-quinolin-4-yl]-(2-trifluoromethyl-phenyl)-amine] | > 5000 | 
2 | c1ccc2c(NCCCC3CCCNC3)cc(-c3ccoc3)nc2c1 (stereo not shown) [Compound I177, (2-(3-furyl)(4-quinolyl))(3-piperidylpropyl)amine] | 801 to 5000 | 
3 | CCN1CCC(Cc2cccc(Nc3cc(-c4cccc(NC(C)=O)c4)nc4ccccc34)c2)CC1 [Compound I237, N-{3-[4-({3-[(1-ethyl-4-piperidyl)methyl]phenyl}amino)-2-quinolyl]phenyl}acetamide] | 801 to 5000 | 
4 | O=C(NCCN1CCCCC1)c1ccc(-c2cc(NCCCN3CCCCC3)c3ccccc3n2)cc1 [Compound I191] | 200 to 800 | 
5 | CCN1CCN(Cc2ccc(Nc3cc(-c4ccc(OC)cc4)nc4c3CCCC4)cc2)CC1 [Compound I206, {4-[(4-ethylpiperazinyl)methyl]phenyl}[2-(4-methoxyphenyl)(4-5,6,7,8-tetrahydroquinolyl)]amine] | 801 to 5000 | 
6 | COc1ccc(CNc2cc(-c3ccc(OC)cc3)nc3ccccc23)cc1 [Compound G79, [2-(4-methoxyphenyl)(4-quinolyl)][(4-methoxyphenyl)methyl]amine] | 801 to 5000 | 
7 | FC(F)(F)c1ccccc1-c1cc(NCCCN2CCCCC2)c2ccccc2n1 [Compound G1, (3-piperidin-1-yl-propyl)-[2-(2-trifluoromethyl-phenyl)-quinolin-4-yl]-amine] | 801 to 5000 | 
8 | CSc1cncc(-c2cc(NCCCN3CCCCC3)c3ccccc3n2)c1 [Compound I92] | 801 to 5000 | 
9 | O=C(NCCCN1CCCCC1)c1ccc(-c2cc(NCCCN3CCCCC3)c3ccccc3n2)cc1 [Compound I198] | 200 to 800 | 
10 | O=C1Cc2ccc(-c3cc(NCCCN4CCCCC4)c4ccccc4n3)cc2N1 [Compound I221] | 801 to 5000 | 
11 | CCN(CC)S(=O)(=O)c1ccc(-c2cc(NCCCN3CCCCC3)c3ccccc3n2)cc1 [Compound I246] | 801 to 5000 | 
12 | CSCCCN1CCCCC1 [Entry 64] |  | inactive
13 | COc1ccc(-c2cc(Nc3ncccn3)c3ccccc3n2)cc1 [Compound G72, [2-(4-methoxyphenyl)(4-quinolyl)]pyrimidin-2-ylamine] | 801 to 5000 | 
14 | CN1CCCC1CCNc1cc(-c2cccc(Cl)c2)nc2ccccc12 (stereo not shown) [Compound I15, [2-(3-chlorophenyl)(4-quinolyl)][2-(1-methylpyrrolidin-2-yl)ethyl]amine] | 801 to 5000 | 
15 | O=C(NCCc1ccncc1)c1ccc(-c2cc(NCCCN3CCCCC3)c3ccccc3n2)cc1 [Compound I189] | 200 to 800 | 
16 | Cc1noc(C)c1-c1cc(NCCCN2CCCCC2)c2ccccc2n1 [Compound I112] | > 5000 | 
17 | COc1ccc(CCNc2cc(-c3ccc(OC)cc3)nc3ccccc23)cc1 [Compound G85, [2-(4-methoxyphenyl)(4-quinolyl)][2-(4-methoxyphenyl)ethyl]amine] | 801 to 5000 | 
18 | O=C(NCc1ccccc1)c1ccc(-c2cc(NCCCN3CCCCC3)c3ccccc3n2)cc1 [Compound I253] | 200 to 800 | 
19 | COc1ccc(-c2cc(NCCc3ccc(C(F)(F)F)cc3)c3ccccc3n2)cc1 [Compound G86, [2-(4-methoxyphenyl)(4-quinolyl)]{2-[4-(trifluoromethyl)phenyl]ethyl}amine] | 801 to 5000 | 
20 | Cn1cc(-c2cc(NCCCN3CCCCC3)c3ccccc3n2)cn1 [Compound G18, [2-(1-Methyl-1H-pyrazol-4-yl)-quinolin-4-yl]-(3-piperidin-1-yl-propyl)-amine] | > 5000 | 
21 | CN(C)c1ccc(-c2cc(NCCCN3CCCCC3)c3ccccc3n2)cc1 [Compound G10, [2-(4-Dimethylamino-phenyl)-quinolin-4-yl]-(3-piperidin-1-yl-propyl)-amine] | 801 to 5000 | 
22 | COc1ccc(-c2cc(Nc3ccc(CC4CCNCC4)cc3)c3ccccc3n2)cc1 [Compound I32, [2-(4-methoxyphenyl)(4-quinolyl)][4-(4-piperidylmethyl)phenyl]amine] | 801 to 5000 | 
